Experimental data as given in patent US20100291204A1, “COMBINATION OF A LONG-ACTING HYPNOTIC AGENT AND A SHORT-ACTING HYPNOTIC AGENT AND THERAPEUTIC USE THEREOF” (SANOFI-AVENTIS, priority 2005, published 2010).
Marks after values point to notes of the source that are not given here.

Legend:
male Sprague-Dawley rats = assay: Effects on sleep in rats (6 hours of recording, day 1 versus vehicle day 0); assay type: in vivo, rat; settings: for Lag time of appearance of NREM sleep: change versus vehicle control; for Duration of NREM sleep / Duration of sleep: total over 6 hours of recording
Method: For this study, four groups of male Sprague-Dawley rats are used, each group comprising from 5 to 9 rats.
Group A receives eplivanserin (oral route, hemifumarate) at a dose of 3 mg/kg p.o.
Group B receives zolpidem (oral route, hemitartrate) at a dose of 3 mg/kg p.o.
Group C receives (orally) in combination 3 mg/kg p.o. of eplivanserin hemifumarate and 3 mg/kg of zolpidem hemitartrate, the two compounds being administered with an interval of 5 minutes.
Finally, group D receives zolpidem (oral route, hemitartrate) at a dose of 10 mg/kg p.o.
The data are recorded on day 0 (control day), when the animals receive only a vehicle (distilled water and methylcellulose) and on day 1 when the animals receive the active principles.
The data are recorded for 6 hours each day, the active principles being administered 15 minutes before the start of recording.
In Table I, the results are expressed as percentages relative to the control groups receiving only the vehicle, unless otherwise indicated.
Duration of sleep: total duration of sleep during the 6 hours of recording. Duration of NREM sleep: total duration of NREM sleep during the 6 hours of recording. Lag time of appearance of NREM sleep: time measured from the start of the recording up to the moment of the first period of NREM sleep. Mean duration of the periods of NREM sleep: duration of NREM sleep/number of periods of NREM sleep during the 6 hours of recording.

[1] = cited from earlier work; for bioavailability: in vivo
[2] = Group B: zolpidem hemitartrate 3 mg/kg p.o., relative to vehicle control
[3] = Group D: zolpidem hemitartrate 10 mg/kg p.o., 6 hours of recording, relative to vehicle control
[4] = Group D: zolpidem hemitartrate 10 mg/kg p.o., relative to vehicle control

Compound	Lag time of appearance of NREM sleep (male Sprague-Dawley rats; Group A: eplivanserin hemifumarate 3 mg/kg p.o., from start of recording to first period of NREM sleep)	bioavailability [1] [%]	Mean duration of the periods of NREM sleep (male Sprague-Dawley rats; Group B: zolpidem hemitartrate 3 mg/kg p.o., 6 hours of recording, relative to vehicle control) [%]	Lag time of appearance of NREM sleep (male Sprague-Dawley rats; Group B: zolpidem hemitartrate 3 mg/kg p.o., from start of recording to first period of NREM sleep) [min]	Duration of NREM sleep (male Sprague-Dawley rats; [2])	Duration of sleep (male Sprague-Dawley rats; [2]) [%]	Mean duration of the periods of NREM sleep (male Sprague-Dawley rats; [3])	Mean number of periods of NREM sleep (male Sprague-Dawley rats; [3])	Lag time of appearance of NREM sleep (male Sprague-Dawley rats; Group D: zolpidem hemitartrate 10 mg/kg p.o.) [min]	Duration of NREM sleep (male Sprague-Dawley rats; [4])	Duration of sleep (male Sprague-Dawley rats; [4]) [%**]	duration of action ([1]; mean dose between 5 and 10 mg in a conventional formulation)
CN(C)CCO/N=C(/C=C/c1ccc(O)cc1)c1ccccc1F [eplivanserin]	+0.6 min	80	–	–	–	–	–	–	–	–	–	–
Cc1ccc(-c2nc3ccc(C)cn3c2CC(=O)N(C)C)cc1 [zolpidem]	–	70	−15	-6	+4%	−2	+31%**	+1%	-1.2	+33%**	−20	up to 6 hours
